Test results as given in US4713381A, “Oxodiazine compounds and pharmaceutical compositions thereof” (Yoshitomi Pharmaceutical Industries, Ltd., priority 1985, dated 1987).
≈ marks a conversion by molar mass, not a printed value. Like-named read-outs stand apart in the source and are kept apart here.

Experiments:
[1] = tested on: platelet aggregation; assay: Effects on platelet aggregation in vitro (ADP-induced, rat platelet-rich plasma, Born type aggregometer); assay type: cell-based, rats; conditions: 2 min, read-out: 50% inhibitory concentrations (IC50)
Description: 1. Effects on platelet aggregation in vitro
Samples of blood are collected from rats weighing 400-450 g and mixed with a 1/10 volume of 3.8% sodium citrate solution. The citrated blood is centrifugated at 200×g for 10 minutes to yield platelet-rich plasma. Test compound is added to platelet-rich plasma thus obtained and maintained at 37° C. for 2 minutes. The platelet aggregation is induced by the addition of 10^-5 M adenosine diphosphate (final concentration) and measured with a Born type six channel aggregometer (Journal of Physiology, vol. 168, pp. 175-198, 1963.
50% inhibitory concentrations (IC50, μg/ml) as compared the control group are calculated. Aspirin and ticlopidine are employed as compounds for comparison.

[2] = tested on: platelet aggregation; assay: Effects on platelet aggregation ex vivo (ADP-induced, rat platelet-rich plasma 2 hours after oral administration); assay type: in vivo; conditions: p.o., rats, after 2 hours, 10^-5 M adenosine diphosphate
Description: 2. Effects on platelet aggregation ex vivo
Test compound is orally administered to rats weighing 400-450 g. After 2 hours, samples of blood are collected from the rats and mixed with a 1/10 volume of 3.8% sodium citrate solution. The citrated blood is centrifugated at 200×g for 10 minutes to yield platelet-rich plasma. The platelet aggregation is induced by the addition of 10^-5 M adenosine diphosphate (final concentration) and measured with the same aggregometer as described in the above Method.
Percentage of inhibition as compared with the control group administered with the solvent are calculated.

[3] = rat platelet-rich plasma, 37° C., 2 minutes, 10^-5 M adenosine diphosphate

Row | Compound | IC50 [1, 3] [µg/mL] | inhibition at 10 mg/kg [2] [%] | IC50 ([1]; Rattus norvegicus, Platelet) [µg/mL]
1 | Cc1nc2sccn2c1C1=NNC(=O)CO1 [Example 5, 2-(6-methylimidazo[2,1-b]thiazol-5-yl)-4,6-dihydro-1,3,4-oxadiazin-5-one] | 0.5 (≈ 2.12 µM) | 54 | –
2 | CC(=O)Oc1ccccc1C(=O)O [Aspirin, reference compound] | – | – | > 300
3 | O=C1COC(c2csc3nccn23)=NN1 [Example 16, 2-(Imidazo[2,1-b]thiazol-3-yl)-4,6-dihydro-1,3,4-oxadiazin-5-one] | – | 60 | –
4 | Cl.O=C1COC(c2cccn3ccnc23)=NN1 [Example 19, 2-(Imidazo[1,2-a]pyridin-8-yl)-4,6-dihydro-1,3,4-oxadiazin-5-one hydrochloride] | – | – | 1
5 | Cc1ccc2nc(C)c(C3=NNC(=O)CO3)n2c1 [Example 3, 2-(2,6-dimethylimidazo[1,2-a]pyridin-3-yl)-4,6-dihydro-1,3,4-oxadiazin-5-one] | 3 (≈ 12.3 µM) | – | –
6 | Cc1nc2ccccn2c1C1=NNC(=O)CO1 [Example 1, 2-(2-methylimidazo[1,2-a]pyridin-3-yl)-4,6-dihydro-1,3,4-oxadiazin-5-one] | 1 (≈ 4.34 µM) | 75 | –
7 | Cc1c(C2=NNC(=O)CO2)sc2nccn12 [Example 17, 2-(3-Methylimidazo[2,1-b]thiazol-2-yl)-4,6-dihydro-1,3,4-oxadiazin-5-one] | 0.6 (≈ 2.54 µM) | 54 | –
8 | Cc1nc2c(C)cccn2c1C1=NNC(=O)CO1 [Example 2, 2-(2,8-dimethylimidazo[1,2-a]pyridin-3-yl)-4,6-dihydro-1,3,4-oxadiazin-5-one] | 1.9 (≈ 7.78 µM) | – | –
9 | O=C1COC(c2ccc3nccn3c2)=NN1 [Example 18, 2-(Imidazo[1,2-a]pyridin-6-yl)-4,6-dihydro-1,3,4-oxadiazin-5-one] | 0.4 (≈ 1.85 µM) | 65 | –
10 | Clc1ccccc1CN1CCc2sccc2C1 [Ticlopidine, ticlopidine, reference compound] | > 300 | – | –
